Experimental data taken from US20160158258A1, “PREVENTION AND TREATMENT OF INFLAMMATORY CONDITIONS” (GLYCOREGIMMUNE, INC., priority 2014, published 2016).

Assays:
[1] = tested on: liver damage caused by alcohol consumption; conditions: description, no example; cited from earlier work
ConA-induced hepatitis [2] = conditions: description, no example; cited from earlier work
[3] = tested on: type I NKT cells; sulfatide/CD1d-tetramer+ cells; conditions: after administration in vivo; cited from earlier work
[4] = tested on: chronic and relapsing experimental autoimmune encephalomyelitis (EAE); test: chronic and relapsing EAE; type: in vivo, SJL mice
Method: Groups of SJL mice were orally gavaged with miltefosine (1 mg in 200 microliters of 10% DMSO/PBS) or control (DMSO/PBS), twice a week as indicated by arrows. Clinical severity of disease was monitored daily as paralysis in both groups of mice from scale 1 to 5 and shown.

[5] = tested on: hepatic ischemia and reperfusion injury; conditions: cited from earlier work
[6] = tested on: chronic experimental autoimmune encephalomyelitis (EAE); test: EAE, oral sulfatide; type: in vivo, B6 mice; conditions: oral 200 micrograms for 7 days, starting one day before disease induction
Text: However as shown in FIG. 6 oral treatment with sulfatide though inhibits disease initially when given orally but not very efficient. Without being limited by any theory, it is contemplated that sulfatide is not very stable in the gut, which is consistent with the observed low efficiency. With reference to FIG. 6, groups of B6 mice were orally treated with sulfatide (200 micrograms in 200 microliters in PBS) for 7 days, starting one day before the disease induction. Clinical paralysis was monitored daily and scored from 1 to 5. […] Without being limited by any theory, the observed similarity of both groups in consistent with instability of sulfatide in the gut.

[7] = tested on: conventional MHC-restricted CD4+ T cells; conditions: description, no example; cited from earlier work
type I NKT cell = conditions: description, no example; also in the absence of antigen-presenting cells; cited from earlier work
[8] = tested on: alcoholic liver diseases (ALD); test: alcoholic liver disease, chronic plus binge EtOh feeding; type: in vivo, C57BL/6 mice
Text: Groups of C57BL/6 mice were fed liquid alcohol (EtOh) diet or isocaloric control (control) diet for 10 day either containing miltefosine (˜500 micrograms per day) or DMSO/PBS. On day 11, 9 hr after the binge (chronic plus binge feeding), accumulation and activation of type I NKT cells (alpha-GalCer/CD1d^−tetramer^+ cells) or neutrophils (Ly^−6 G^+ CD11b^+) were examined in liver. As shown in FIG. 4A and FIG. 4B, in comparison to the control diet group, type I NKT cells accumulate into liver in mice fed liquid chronic plus binge EtOh diet. Also as shown in FIG. 4C and FIG. 4D, type I NKT cells become activated (as examined by the expression of CD69 cell surface expression in alpha-GalCer/CD1d-tetrame^+ cells) accompanied by accumulation of neutrophils (Ly^−6 G^+ CD11b^+ cells) into liver. Accumulation of activated type I NKT cells and neutrophils leads to inflammatory cascade resulting in heaptocyte injury during ALD.

[9] = tested on: type II NKT cell hybridoma, Hy19.3; test: plate-bound CD1d assay: IL-2 from type II NKT cell hybridoma; type: cell-based; conditions: CD1d coated plates incubated with lipid 6 hr; 50,000 cells/well; IL-2 measured 16 hr later
Method: (§1) The CD1d protein coated 96-well plates were incubated with the indicated lipids for 6 hr, washed and a type II NKT cell Hy 19.3 was added (50,000 cells/well) and IL-2 measured 16 hr later in the supernatant. LSF, lysosulftatide; LPC, lysophosphatidylcholine.

type I NKT cells = test: alpha-GalCer stimulation of splenocytes from orally treated mice; type: in vivo, B6 mice; conditions: 1 mg oral gavage daily for 7 days; splenocytes cultured 90 hrs; 10 ng/ml alpha-GalCer
Method: Naïve B6 mice were treated every day for 7 days with DMSO (Control) or Miltefosine 1 mg (dissolved in DMSO and diluted into PBS), using oral gavage. Splenocytes were cultured in vitro for 90 hrs in the presence or absence of alpha-GalCer. Stimulation (as stimulation Index) and expansion of type I NKT cells (as FACS staining with alpha-GalCer/CD1d^−tetramer^+ cells) at 10 ng/ml of alpha-GalCer concentration is shown in both FIG. 2A and FIG. 2B.

CD1d = target: T1, CD1d (Mus musculus, UniProt P11609); test: plate-bound CD1d assay: binding to CD1d; conditions: concluded from plate-bound CD1d assay
T1 sequence (P11609 19-297 limits assumed): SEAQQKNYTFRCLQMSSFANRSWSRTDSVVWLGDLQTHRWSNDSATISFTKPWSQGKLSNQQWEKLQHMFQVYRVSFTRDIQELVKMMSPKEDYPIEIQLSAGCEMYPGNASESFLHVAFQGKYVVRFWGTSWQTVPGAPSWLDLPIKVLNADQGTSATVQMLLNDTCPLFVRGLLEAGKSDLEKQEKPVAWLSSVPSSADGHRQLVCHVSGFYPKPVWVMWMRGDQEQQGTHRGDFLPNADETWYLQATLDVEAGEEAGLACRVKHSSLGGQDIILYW
T1 sequence (P01887 21-119 partner): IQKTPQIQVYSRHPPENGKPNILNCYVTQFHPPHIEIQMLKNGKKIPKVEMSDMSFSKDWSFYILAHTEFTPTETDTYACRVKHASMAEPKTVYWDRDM
Method: as §1

liver mononuclear cells = test: flow cytometry of liver mononuclear cells after oral treatment; type: in vivo, SJL/J mice; conditions: 1 mg orally before and during disease; day 59
Method: Groups of female SJL/J mice were administered orally with 1 mg of miltefosine as shown in the FIG. 2, before and during the course of disease. Mice were sacrificed on day 59.

ConA-induced hepatitis [10] = test: ConA-induced hepatitis; type: in vivo, BL/6 mice
Method: Groups of BL/6 mice were either administered with DMSO/PBS or miltefosine 12 hr before ConA administration and liver injury was determined by H&E staining of liver sections and liver enzymes, such as ALT in serum examined 24 hr later (FIG. 3A and FIG. 3B). Data shown are representative of 2 independent experiments.

[11] = ~500 micrograms per day in EtOh diet 10 day, day 11, 9 hr after binge

3′-sulfogalactosyl ceramide [sulfatide]
liver damage following excess alcohol consumption [1]: almost complete protection from liver damage
protection against ConA-induced hepatitis (hepatocellular necrosis, serum ALT and AST) (ConA-induced hepatitis [2]): can protect against Concanavalin A (ConA)-induced hepatitis
in vitro proliferation of type I NKT cells in response to alpha-GalCer [3]: suppress in vitro proliferation of type I NKT cells
percentage of sulfatide/CD1d-tetramer+ cells with intracytoplasmic IFN-gamma staining [3]: increase the percentage of sulfatide/CD1d-tetramer+ cells with intracytoplasmic IFN-gamma staining
chronic and relapsing EAE ([4]; SJL/J mice, route not stated): significant inhibition
secretion of IFN-gamma by hepatic type I NKT cells ([5]; early phase of ischemia and reperfusion injury, vs untreated animals): significantly decreased
liver injury following ischemia/reperfusion ([5]; mice treated with sulfatide): significantly reduced
duration of initial protection from clinical paralysis [6]: 4 to 5 days

CC1=C(/C=C/C(C)=C/C=C/C(C)=C/C(=O)O)C(C)(C)CCC1 [ATRA, all trans retinoic acid]
liver damage following excess alcohol consumption [1]: significantly inhibits liver damage
activity of conventional MHC-restricted CD4+ T cells that recognize protein antigens [7]: does not directly inhibit
type I NKT cell effector function, including cytokine secretion (type I NKT cell): inhibits type I NKT cell effector function

CCCCCCCCCCCCCCCCOP(=O)([O-])OCC[N+](C)(C)C [miltefosine]
liver injury ([8]; ~500 micrograms per day in EtOh diet): protection from liver injury
accumulation of type I NKT cells in liver [8, 11]: inhibited accumulation of type I NKT cells
levels of activated (CD69+) type I NKT cells in liver [8, 11]: reduced levels of activated (CD69^+) NKT cells
levels of neutrophils (Ly-6G+ CD11b+) in liver [8, 11]: reduced levels of neutrophils
stimulation of type II NKT cell hybridoma Hy19.3 (IL-2 in the supernatant) [9]: able to stimulate
type I NKT cells proliferation and expansion in the presence of alpha-GalCer (type I NKT cells): significant inhibition
binding to CD1d molecules (CD1d): can bind to CD1d molecules
clinical severity of disease (paralysis, scale 1 to 5) ([4]; oral gavage 1 mg twice a week): can be treated with miltefosine
other CD4+ and CD8αβ+ T cells in liver, control vs. treated (liver mononuclear cells): not different
regulatory CD8αα+ T cells in liver (liver mononuclear cells): significantly increased
serum levels of ALT (ConA-induced hepatitis [10]; given 12 hours before ConA, 24 hours later): reduced serum levels of ALT
liver injury following Con A injection (ConA-induced hepatitis [10]; given 12 hr before ConA): significant inhibition of liver injury
necrosis, H&E staining of liver sections (ConA-induced hepatitis [10]; given 12 hr before ConA): decreased necrosis
